Molecular target: T1, MDM2 (Homo sapiens, UniProt Q00987)
T1 construct: MDM2 (Abcam, ab167941)
Test: fluorescence polarization competition with FITC-p53 peptide
Format: binding
Source text: fluorescence polarization competition with FITC-p53 peptide on MDM2 | analysis of the interaction of N201 with MDM2 instead of with fluorescein isothiocyanate (FITC)–p53.

T1 sequence (Q00987 whole entry): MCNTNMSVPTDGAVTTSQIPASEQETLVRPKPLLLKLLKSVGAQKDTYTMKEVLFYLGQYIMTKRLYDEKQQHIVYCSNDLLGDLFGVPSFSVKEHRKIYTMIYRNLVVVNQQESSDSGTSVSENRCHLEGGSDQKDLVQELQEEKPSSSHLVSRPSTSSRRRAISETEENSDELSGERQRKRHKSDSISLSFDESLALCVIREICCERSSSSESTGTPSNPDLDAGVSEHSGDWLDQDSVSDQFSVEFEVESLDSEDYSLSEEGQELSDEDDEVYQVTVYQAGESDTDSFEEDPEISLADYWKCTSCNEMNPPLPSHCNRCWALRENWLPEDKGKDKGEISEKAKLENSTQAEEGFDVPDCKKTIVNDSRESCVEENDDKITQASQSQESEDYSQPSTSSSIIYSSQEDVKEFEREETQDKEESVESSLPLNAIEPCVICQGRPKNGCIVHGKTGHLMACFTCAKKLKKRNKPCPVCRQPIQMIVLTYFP

For COc1ccc(C2=NC(c3ccc(Cl)cc3)C(c3ccc(Cl)cc3)N2C(=O)N2CCN(CCO[C@@H]3O[C@H](CO)[C@H](O)[C@H](O)[C@H]3O)CC2)c(OC(C)C)c1 (some centres unmarked) [N201-gal], the IC50 was 200 nM.

With COc1ccc(C2=NC(c3ccc(Cl)cc3)C(c3ccc(Cl)cc3)N2C(=O)N2CCN(CCO)CC2)c(OC(C)C)c1 (centres unmarked) [N201] the IC50 was 130 nM.
